Changes are numbered by the printed parent chain.
Key:
Format in all cases: binding
Settings in all cases: competitive FP titration vs CF-ppIRS1 100 nM, protein fixed; n = 3 technical replicates
[1] = biological target: T1, inactive SHP2 catalytic domain Loopmut (K364E) (Homo sapiens, UniProt Q06124, C459S/K364E); test: Fluorescence polarization titrations, SHP2 Loopmut
T1 construct: SHP2 K364E (Loopmut); 219-528 + C459S; His6 (N); made in house; host or cells: E. coli BL21 (DE3)
T1 sequence (Q06124 219-528 K364E/C459S): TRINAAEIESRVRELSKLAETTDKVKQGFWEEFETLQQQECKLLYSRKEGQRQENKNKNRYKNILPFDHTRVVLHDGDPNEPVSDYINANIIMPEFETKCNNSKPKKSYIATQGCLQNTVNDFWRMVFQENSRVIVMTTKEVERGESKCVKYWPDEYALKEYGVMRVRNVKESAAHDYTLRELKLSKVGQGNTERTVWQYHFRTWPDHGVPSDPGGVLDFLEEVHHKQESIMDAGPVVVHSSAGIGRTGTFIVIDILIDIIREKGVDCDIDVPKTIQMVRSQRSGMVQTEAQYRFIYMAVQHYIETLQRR
Source text: (§1) The two SH2 domains of PI3KR1 (UniProt P27986; nSH2: 321−433 cSH2: 614–724) were cloned from HEK293T cDNA pool, and subsequently ligated into a modified pET vector encoding maltose binding protein (MBP) tag on the N-terminal and a hexa-His tag on the C-terminal end of the construct. Similarly, the catalytic, tyrosine phosphatase domains of PTPRε (P23469 first domain: 107–399) and PTP1B (P18031; 1–229) were cloned from a HEK293T cDNA pool, and inserted into a pBH4 vector encoding an N-terminal His6 tag (for the final binding experiments, an MBP-tagged version of PTPRε was employed). […] Surface mutants of SHP2 were constructed from the SHP2-C459S plasmid, using the QuickChange protocol. The D425A and H426A catalytic site mutants and all enzymatically active surface mutants were generated similarly, but from the plasmid encoding the wild-type catalytic domain of SHP2. Wild-type C-terminal FLAG-tagged human IRS1 was cloned between HindIII-NotI sites of pcDNA3.1(+) vector (#V79020 Invitrogen, Waltham MA USA). Ser/Ala mutant IRS1 was generated by replacing the region of S616/S636/S666/S736 positions with a cassette carrying S616A/S636A/S666A/S736A mutations. All constructs were validated by complete Sanger sequencing before protein expression and purification. The oligonucleotide sequences used are shown on Supplementary table 4.
(§2) Fluorescence polarization (FP) assays were performed as follows: In direct titration experiments, protein concentration was varied in an 1/2 or 2/3 dilution series (90 µl protein+ 45 µl mix), while concentration of the reporter peptide (CF-ppIRS1) was kept constant at 100 nM. In competitive titrations, the labelled CF-ppIRS1 peptide and protein were both fixed (at 50–80% saturation) and the unlabelled competitor peptide concentration was varied. Fluorescence polarization was always measured in triplicates, on black Corning low volume round bottom 384-well plates (with 10 ul volumes), using a BioTek Cytatation 5 reader, with the green fluorescent protein (GFP) cube filter set (ex: 485/20, em: 528/20, gain: 50, height: 7.5). Fluorescence polarization data was evaluated on Origin 2018. The dissociation constants (Kd) were determined by using the appropriate quadratic and cubic equations inserted as a user-defined function and applying nonlinear fit until convergence. The fitting formulae are shown at Supplementary note 1. Kd ratio distributions for Fig. 6 were calculated using a Monte-Carlo approach (Supplementary note 2).
(§3) Supplementary note 1. Curve fitting of fluorescence polarization (FP) measurements.
(§4) To evaluate polarization values from direct and competitive titrations, we used the following fitting formulae in Origin 2018, as detailed below.
(§5) Direct titration curves were fitted according to the following formula: […]
(§6) Where Imin is the minimal anisotropy, Imax is the (asymptotically estimated) maximal intensity. K0 is the starting concentration of the protein, while T0 is the (fixed) concentration of the labelled peptide and Kd is the dissociation constant.
(§7) Competitive titration curves were fitted with a different formula (In addition to those defined above, constants KdT KdB B0 T0 and D0 here refer to the Kd derived from the direct titration, the unknown Kd of the analyte, the labelled peptide concentration, the competitor peptide concentration as well as the protein concentration, respectively).
(§8) The ± sign refers to two different scenarios, depending on the sign of discriminant (KdT > KdB or […]). For unknown analytes, the choice of sign is not arbitrary, as the fitting will not converge unless the appropriate formula is chosen: […]
(§9) Where A, B and C correspond to the following expressions: […]

[2] = biological target: T2, inactive SHP2 catalytic domain Hillmut (K274E) (Homo sapiens, UniProt Q06124, C459S/K274E); test: Fluorescence polarization titrations, SHP2 Hillmut
T2 construct: SHP2 K274E (Hillmut); 219-528 + C459S; His6 (N); made in house; host or cells: E. coli BL21 (DE3)
T2 sequence (Q06124 219-528 K274E/C459S): T1 sequence (Q06124 219-528 K364E/C459S) with K56E, E146K
Source text: as §1, §2, §3, §4, §5, §6, §7, §8, §9

[3] = biological target: T3, inactive SHP2 catalytic domain Loopinv (R362E) (Homo sapiens, UniProt Q06124, C459S/R362E); test: Fluorescence polarization titrations, SHP2 Loopinv
T3 construct: SHP2 R362E (Loopinv); 219-528 + C459S; His6 (N); made in house; host or cells: E. coli BL21 (DE3)
T3 sequence (Q06124 219-528 R362E/C459S): T1 sequence (Q06124 219-528 K364E/C459S) with R144E, E146K
Source text: as §1, §2, §3, §4, §5, §6, §7, §8, §9

CSCC[C@H](NC(=O)[C@H](Cc1ccc(OP(=O)(O)O)cc1)NC(=O)[C@H](CC(=O)O)NC(=O)[C@H](CO)NC(=O)[C@H](Cc1c[nH]cn1)NC(=O)[C@H](CC(C)C)NC(=O)[C@H](CC(C)C)NC(=O)[C@H](CCCNC(=N)N)NC(=O)[C@H](CO)NC(=O)[C@@H](N)CCCNC(=N)N)C(=O)N[C@@H](CC(N)=O)C(=O)N[C@@H](CCSC)C(=O)N[C@H](C(=O)N1CCC[C@H]1C(=O)N[C@@H](CCCNC(=N)N)C(=O)N[C@@H](CCCNC(=N)N)C(=O)O)[C@@H](C)O [p0CD28]
Kd [1]: 20.5 ± 1.53 µM | Kd [2]: 54.6 ± 5.12 µM | Kd [3]: 45.7 ± 7.49 µM

CSCC[C@H](NC(=O)[C@@H]1CCCN1C(=O)[C@H](CCSC)NC(=O)[C@H](Cc1ccc(OP(=O)(O)O)cc1)NC(=O)[C@H](CC(=O)O)NC(=O)CNC(=O)[C@H](CO)NC(=O)CNC(=O)[C@H](CCCCN)NC(=O)[C@H](CCCNC(=N)N)NC(=O)CN)C(=O)N[C@@H](CO)C(=O)N1CCC[C@H]1C(=O)N[C@@H](CCCCN)C(=O)N[C@@H](CO)C(=O)O [p0IRS1]
Kd [1]: 23.3 ± 0.9 µM | Kd (competitive titration) [1]: bound stronger | Kd [2]: 83.9 ± 2.58 µM | Kd [3]: 61.8 ± 16.2 µM

CC[C@H](C)[C@H](NC(=O)[C@H](CC(N)=O)NC(=O)[C@@H](NC(=O)[C@H](Cc1ccc(OP(=O)(O)O)cc1)NC(=O)[C@H](CCC(=O)O)NC(=O)CNC(=O)[C@@H]1CCCN1C(=O)[C@H](CO)NC(=O)[C@H](CCCCN)NC(=O)[C@@H]1CCCN1C(=O)[C@@H](N)CCC(=O)O)C(C)C)C(=O)N[C@@H](CCC(=O)O)C(=O)N[C@@H](Cc1ccccc1)C(=O)O [p0SRev-IRS1]
Kd [1]: 7.73 ± 1.08 µM | Kd [2]: 14.8 ± 0.88 µM | Kd [3]: 9.35 ± 1.54 µM

CSCC[C@H](NC(=O)[C@H](Cc1ccc(OP(=O)(O)O)cc1)NC(=O)[C@H](CC(=O)O)NC(=O)[C@H](CO)NC(=O)[C@H](Cc1c[nH]cn1)NC(=O)[C@H](CC(C)C)NC(=O)[C@H](CC(C)C)NC(=O)[C@H](CCCNC(=N)N)NC(=O)[C@H](CO)NC(=O)[C@@H](N)CCCNC(=N)N)C(=O)N[C@@H](CC(N)=O)C(=O)N[C@@H](CCSC)C(=O)N[C@H](C(=O)N1CCC[C@H]1C(=O)N[C@@H](CCCNC(=N)N)C(=O)N[C@@H](CCCNC(=N)N)C(=O)O)[C@@H](C)OP(=O)(O)O [ppCD28]
Kd [1]: 6.66 ± 0.38 µM | Kd [2]: 11 ± 0.57 µM | Kd [3]: 15.2 ± 0.49 µM

CSCC[C@H](NC(=O)[C@@H]1CCCN1C(=O)[C@H](CCSC)NC(=O)[C@H](Cc1ccc(OP(=O)(O)O)cc1)NC(=O)[C@H](CC(=O)O)NC(=O)CNC(=O)[C@H](CO)NC(=O)CNC(=O)[C@H](CCCCN)NC(=O)[C@H](CCCNC(=N)N)NC(=O)CN)C(=O)N[C@@H](COP(=O)(O)O)C(=O)N1CCC[C@H]1C(=O)N[C@@H](CCCCN)C(=O)N[C@@H](CO)C(=O)O [ppIRS1]
Kd [1]: 3.01 ± 0.42 µM | Kd (competitive titration) [1]: bound stronger | Kd [2]: 2.23 ± 0.14 µM | Kd [3]: 7.53 ± 1.1 µM

CC[C@H](C)[C@H](NC(=O)[C@H](CC(N)=O)NC(=O)[C@@H](NC(=O)[C@H](Cc1ccc(OP(=O)(O)O)cc1)NC(=O)[C@H](CCC(=O)O)NC(=O)CNC(=O)[C@@H]1CCCN1C(=O)[C@H](COP(=O)(O)O)NC(=O)[C@H](CCCCN)NC(=O)[C@@H]1CCCN1C(=O)[C@@H](N)CCC(=O)O)C(C)C)C(=O)N[C@@H](CCC(=O)O)C(=O)N[C@@H](Cc1ccccc1)C(=O)O [ppSRev-IRS1]
Kd [1]: 0.99 ± 0.07 µM | Kd [2]: 2.56 ± 0.28 µM | Kd [3]: 0.67 ± 0.16 µM
